{"source": "patent US20070105879A1", "about": "(HALEX ISTAR INDUSTRIA FARMACEUTICA LTDA., priority 2003, published 2007)", "key": {"[1]": {"conditions": "cited from earlier work"}, "[2]": {"conditions": "sodium salt / reconstituted state-of-the-art solution, cited from earlier work"}, "[3]": {"experiment": "pH and appearance of ganciclovir solutions", "assay_type": "physicochemical", "conditions": "glucose solution, formulation tests", "from_the_text": "The earlier tests were tried with the 9-((1,3-dihydroxypropan-2-iloxy)methyl)-2-amine-1-purin-6(9H)-one molecule used for preparing the lyophilized product.\nStabilizing the molecule in this pH, allowed lowering hazards during manipulation, once the previous solution was too much alkaline (pH=11), and was too much irritating after its reconstitution being not possible to be in contact with the skin, mucous membranes and eyes. Using appropriate glasses and gloves were necessary when manipulating this substance.\nYes, but can cause irritation in the site of the injection due the elevate pH of the injectable solution (pH˜11). It also can be done by subcutaneous administration, but with the same local irritation risk.\nBecause the resulting solution is strongly alkaline (pH=11) and irritating after its reconstitution, one must avoid the contact with the skin, mucous membranes and the eyes. Using glasses and gloves are necessary when manipulating it."}, "cytomegalovirus": {"system": "cytomegalovirus", "conditions": "drug derived from acyclovir, U.S. Pat. No. 4,355,032; cited from earlier work"}}, "note": "Counter-ions that a name gives are not always drawn. Like-named read-outs stand apart in the source and are kept apart here."}
{"smiles": "Nc1nc(O)c2ncn(COC(CO)CO)c2n1", "note": "[Ganciclovir sodium salt, 9-((1,3-dihydroxypropan-2-iloxy)methyl)-2-amine-1H-purin-6(9H)-one sodium salt]", "values": [{"measurement": "physically and chemically stable (time)", "setting": "[1]; reconstituted with sterile water for injection, diluted with sodium chloride 0.9% in PVC bags, refrigeration at 5° C.", "value": 14, "unit": "days"}, {"measurement": "pH of solution", "setting": "[2]; listed as sodium Ganciclovir, sodium salt", "value": 11}, {"measurement": "pH of solution", "setting": "[2]; sodium salt", "value": "about 11"}]}
{"smiles": "Nc1nc2c(ncn2COC(CO)CO)c(=O)[nH]1", "note": "[Ganciclovir, 9-((1,3-dihydroxypropan-2-iloxy)methyl)-2-amine-1H-purin-6(9H)-one]", "values": [{"measurement": "appearance of solution", "setting": "[3]", "value": "yellowish and oxidized solution"}, {"measurement": "Stability (time)", "setting": "[1]; room temperature, reconstituted inside its own vial", "value": 12, "unit": "h"}, {"measurement": "pH of solution", "setting": "[2]", "value": 11}, {"measurement": "activity against cytomegalovirus, times greater", "setting": "cytomegalovirus", "value": 100, "unit": "times"}]}
